Laboratory results taken from ChEMBL document CHEMBL1124021, “Novel type of potential anticancer agents derived from chrysophanol and emodin. Some structure-activity relationship studies” (1988).

The molecules below were run on L1210 (assay: In vitro inhibition of L1210 mouse leukemia cell proliferation.). Conditions: read-out: ID50 (the source's name).
Assay type: functional

IC50 [µM] | Compound
> 27.6 | COc1cc(OC)c2c(c1)C(=O)c1cc(CN(CCO)CCO)cc(OC)c1C2=O
2.75 | CCN(CC)Cc1cc(O)c2c(c1)C(=O)c1cccc(O)c1C2=O
11.9 | CCN(CC)Cc1cc(OC)c2c(c1)C(=O)c1cccc(O)c1C2=O
13.7 | COc1cc(O)c2c(c1)C(=O)c1cc(CN(CCO)CCO)cc(O)c1C2=O
128 | CCN(CC)Cc1cc(OC)c2c(c1)C(=O)c1cccc(OC)c1C2=O
6.91 | CCN(CC)Cc1cc(OC)c2c(c1)C(=O)c1cc(OC)cc(OC)c1C2=O
23.4 | COc1cccc2c1C(=O)c1c(O)cc(CN(CCO)CCO)cc1C2=O
> 50 | COc1cccc2c1C(=O)c1c(OC)cc(CN(CCO)CCO)cc1C2=O
1.16 | CCN(CC)Cc1cc(O)c2c(c1)C(=O)c1cc(OC)cc(O)c1C2=O
5.92 | O=C1c2cccc(O)c2C(=O)c2c(O)cc(CN(CCO)CCO)cc21
> 393 | Cc1cc(O)c2c(c1)C(=O)c1cccc(O)c1C2=O [CHRYSOPHANOL]

Compound | IC50 [µM]
COc1cc(OC)c2c(c1)C(=O)c1cc(CN(CCCl)CCCl)cc(O)c1C2=O | 1.75
COc1cc(CN(CCCl)CCCl)cc2c1C(=O)c1c(O)cccc1C2=O | 1.4
O=C1c2cccc(O)c2C(=O)c2c(O)cc(CN(CCCl)CCCl)cc21 | 0.13
COc1cc(OC)c2c(c1)C(=O)c1cc(CN(CCCl)CCCl)cc(OC)c1C2=O | 2.66
Cc1cc(O)c2c(c1)C(=O)c1cc(O)cc(O)c1C2=O [EMODIN] | 13.3
COc1cccc2c1C(=O)c1c(OC)cc(CN(CCCl)CCCl)cc1C2=O | 12.5
COc1cc(O)c2c(c1)C(=O)c1cc(CN(CCCl)CCCl)cc(O)c1C2=O | 0.023
